From patent publication US9440930B2, “Substituted bicyclic dihydropyrimidinones and their use as inhibitors of neutrophil elastase activity” (Boehringer Ingelheim International GmbH, priority 2014, dated 2016)
Values after ≈ are worked out from the molar mass of the structure shown.

Tests used:
cytochrome P450 2C19 = target: T1, cytochrome P450 2C19 (Homo sapiens, UniProt P33261); assay: Cytochrome P450 2C19 inhibition; assay type: in vitro ADME; settings: human liver microsomes, (S)-Mephenytoin hydroxylation
T1 construct: is assayed at 37° C. with human liver microsomes; from tissue; host or cells: human liver microsomes
Source text: Assay for Determination of Cytochrome P450 2C19 Inhibition

Aqueous solubility = assay type: physicochemical; settings: McIlvaine buffer pH 6.8 containing 2.5% DMSO, kinetic from dmso stock, McIlvaine buffer pH 6.8, 2.5% DMSO, 24 h shaking
Protocol: Assay for Determination of Aqueous Solubility
Starting from a 10 min DMSO stock solution, aliquots are diluted with acetonitrile/water (1/1) and McIlvaine buffer pH 6.8, respectively. After 24 h of shaking, the solutions or suspensions are filtered and analyzed by LC-UV. The amount dissolved in buffer is compared to the amount dissolved in the acetonitrile/water (1/1) solution. Solubility is measured from 0.001 to 0.125 mg/ml at a DMSO concentration of 2.5%. If more than 90% of the compound is dissolved in buffer, the value is marked with “>”.

[1] = target: T2, neutrophil elastase in human plasma (Homo sapiens, UniProt P08246); assay: Neutrophil elastase inhibitory activity in human plasma; assay type: biochemical; settings: zymosan-stimulated human plasma, substrate MeOSuc-Ala-Ala-Pro-Val-AMC 250 μM
T2 construct: The stimulated blood is centrifuged to generate the neutrophil elastase enriched plasma; from tissue; host or cells: plasma from zymosan-stimulated citrated whole blood of healthy human donors
T2 sequence (P08246 30-267): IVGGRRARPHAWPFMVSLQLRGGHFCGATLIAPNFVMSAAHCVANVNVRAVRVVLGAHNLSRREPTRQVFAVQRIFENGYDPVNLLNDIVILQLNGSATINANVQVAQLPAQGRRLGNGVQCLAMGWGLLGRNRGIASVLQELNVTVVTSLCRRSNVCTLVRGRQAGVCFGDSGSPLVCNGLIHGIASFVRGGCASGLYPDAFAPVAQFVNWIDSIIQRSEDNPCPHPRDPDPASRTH
Protocol: Assay for the Determination of Neutrophil Elastase Inhibitory Activity in Human Plasma
Citrated blood from human healthy donors is mixed with zymosan suspension and incubated at room temperature. This leads to the stimulation of neutrophils and the release of neutrophil elastase into the plasma. The stimulated blood is centrifuged to generate the neutrophil elastase enriched plasma.
• A single 45 ml blood sample is taken into a 50 ml tube containing citrate (3.13%, 5 mL) and the tube is gently inverted 4 times. • Immediately after blood sampling, zymosan working solution (5 mL) is added. • After the addition of zymosan working solution, the tubes are capped, mixed gently and incubated at 22° C. for 15 min on a shaker at 20 rpm. • Make 10 ml aliquots after the incubation time. • Centrifuge the 15 ml tubes at 800 g for 15 min at 4° C. in a Jouan centrifuge. • Harvest the plasma and make 1-5 ml aliquots. • Store the plasma at −80° C.
A dose response curve is generated to calculate the EC50 of the inhibitor. The analysis of the data is performed by the calculation of the percentage of fluorescence in the presence of the test compound compared to the fluorescence of the vehicle control after subtracting the background fluorescence: An inhibitor of the neutrophil elastase enzyme will give values between 100% control (no inhibition) and 0% control (complete inhibition).

[2] = target: T3, Human neutrophil elastase (Homo sapiens, UniProt P08246); assay: Human Neutrophil Elastase Assay; assay type: biochemical; settings: substrate MeOSuc-Ala-Ala-Pro-Val-AMC 250 μM, pH 7.5, room temperature
T3 construct: purchased Calbiochem 324681
T3 sequence (P08246 30-247 limits assumed): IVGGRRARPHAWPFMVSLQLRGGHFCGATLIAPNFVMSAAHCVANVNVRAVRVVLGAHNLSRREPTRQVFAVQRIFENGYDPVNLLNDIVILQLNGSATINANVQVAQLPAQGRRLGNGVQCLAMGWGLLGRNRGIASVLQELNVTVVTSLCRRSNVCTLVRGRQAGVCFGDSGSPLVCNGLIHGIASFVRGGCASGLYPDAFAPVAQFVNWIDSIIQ
Source text: Human Neutrophil Elastase Assay

[3] = target: hERG (human ether-a-go-go-related gene) potassium channel (Homo sapiens, UniProt Q12809); assay: hERG inhibition; assay type: cell-based
hERG potassium channel = hERG potassium channel (Homo sapiens, UniProt Q12809); assay: hERG inhibition; assay type: cell-based; settings: human; at 10 μM
Chain of hERG potassium channel (Q12809 whole entry): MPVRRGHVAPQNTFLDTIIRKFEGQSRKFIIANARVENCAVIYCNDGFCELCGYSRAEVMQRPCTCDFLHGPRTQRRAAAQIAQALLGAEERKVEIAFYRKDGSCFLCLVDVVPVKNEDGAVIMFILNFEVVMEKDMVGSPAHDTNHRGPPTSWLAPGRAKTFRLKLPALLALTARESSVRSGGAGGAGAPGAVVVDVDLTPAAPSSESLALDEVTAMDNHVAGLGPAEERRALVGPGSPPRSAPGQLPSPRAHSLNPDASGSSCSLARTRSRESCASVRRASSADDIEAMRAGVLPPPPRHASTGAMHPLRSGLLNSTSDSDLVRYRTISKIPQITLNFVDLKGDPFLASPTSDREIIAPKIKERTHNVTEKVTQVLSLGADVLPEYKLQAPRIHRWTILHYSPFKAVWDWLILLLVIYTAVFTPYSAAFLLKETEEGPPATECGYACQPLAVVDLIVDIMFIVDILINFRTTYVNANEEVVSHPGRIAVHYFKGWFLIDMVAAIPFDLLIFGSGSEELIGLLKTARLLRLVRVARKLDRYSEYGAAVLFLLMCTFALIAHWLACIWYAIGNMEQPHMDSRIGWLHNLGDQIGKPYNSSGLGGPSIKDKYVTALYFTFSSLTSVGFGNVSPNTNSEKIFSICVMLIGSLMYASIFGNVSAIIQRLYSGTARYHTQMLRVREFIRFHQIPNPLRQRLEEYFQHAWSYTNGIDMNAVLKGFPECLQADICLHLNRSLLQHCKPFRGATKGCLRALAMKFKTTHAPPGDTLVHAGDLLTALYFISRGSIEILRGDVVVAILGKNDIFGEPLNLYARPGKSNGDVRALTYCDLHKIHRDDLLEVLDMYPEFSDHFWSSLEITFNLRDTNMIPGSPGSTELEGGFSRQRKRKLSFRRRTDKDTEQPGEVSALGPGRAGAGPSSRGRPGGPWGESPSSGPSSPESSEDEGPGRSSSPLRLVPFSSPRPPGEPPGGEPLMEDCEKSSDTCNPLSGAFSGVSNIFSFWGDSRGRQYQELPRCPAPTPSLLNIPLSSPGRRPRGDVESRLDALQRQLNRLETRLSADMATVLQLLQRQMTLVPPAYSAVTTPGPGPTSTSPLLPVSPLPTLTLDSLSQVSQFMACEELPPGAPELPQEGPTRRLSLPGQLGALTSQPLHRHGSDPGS

Chain of hERG (human ether-a-go-go-related gene) potassium channel (Q12809 whole entry): as above
T1 sequence (P33261 whole entry): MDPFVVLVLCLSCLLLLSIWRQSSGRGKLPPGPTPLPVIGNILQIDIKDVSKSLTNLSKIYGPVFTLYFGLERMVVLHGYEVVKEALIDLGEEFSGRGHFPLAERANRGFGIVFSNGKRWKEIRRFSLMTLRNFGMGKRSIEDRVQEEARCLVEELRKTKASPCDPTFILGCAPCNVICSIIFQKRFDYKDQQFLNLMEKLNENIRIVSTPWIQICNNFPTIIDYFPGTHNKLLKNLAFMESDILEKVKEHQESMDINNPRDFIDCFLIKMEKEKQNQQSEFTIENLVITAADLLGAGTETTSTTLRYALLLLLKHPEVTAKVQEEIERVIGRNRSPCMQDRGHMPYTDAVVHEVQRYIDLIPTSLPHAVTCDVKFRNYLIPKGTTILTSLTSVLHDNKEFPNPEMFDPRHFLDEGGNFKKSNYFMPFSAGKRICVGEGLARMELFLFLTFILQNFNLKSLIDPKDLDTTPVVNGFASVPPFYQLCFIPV

IC50 (cytochrome P450 2C19): > 50000 nM
solubility at 24 h (Aqueous solubility): 55 µg/mL (≈ 113 µM)
EC50 [1]: 1 nM
IC50 [2]: < 1 nM
SMILES: CN1C(=O)N(c2cccc(C(F)(F)F)c2)C2=C(C(=O)CCC2)[C@H]1c1ccc(C#N)cc1[S+](C)[O-] (single isomer, unassigned) [Example 2.2A, 3-Methanesulfinyl-4-[3-methyl-2,5-dioxo-1-(3-trifluoromethyl-phenyl)-1,2,3,4,5,6,7,8-octahydro-quinazolin-4-yl]-benzonitrile]
IC50 [3]: > 30000 nM
inhibition at 10 µM (hERG potassium channel): 9%
